Like-named read-outs stand apart in the source and are kept apart here. Non-standard residues stand in square brackets, D forms with d. Residues, ends and D or L forms follow the SMILES beside them. *: point of attachment. Phe(3-Cl) = N[C@@H](Cc1cccc(Cl)c1)C(=O)O; Phe(3-F) = N[C@@H](Cc1cccc(F)c1)C(=O)O; NMeE = CN[C@@H](CCC(=O)O)C(=O)O; X1 = CCCCOc1ccc(S(=O)(=O)*)cc1; X2 = COc1ccc(S(=O)(=O)*)cc1OC; Tos = Cc1ccc(S(=O)(=O)*)cc1; Propionyl = CCC(=O)*; Bz = O=C(c1ccccc1)*

One test has as its target β-TrCP1/Skp1 (Homo sapiens, UniProt Q9Y297). As to the kind of experiment: βTrCP ubiquitination assay (Ub assay). The conditions noted are these: for Ub Assay 10 μM: 10 μM compound; for Ub Assay 100 μM: 100 μM compound. In kind it is biochemical. How it is done:
(§1) βTrCP Ubiquitination Assay and Selectivity Assays
0.5 μM Peptide substrate (biotin)
(§2) Master mixes were prepared in a 50 mM Herpes buffer at pH 7.5, in 75 mM NaCl and 1 mM DTT without Mg or ATP and peptides were added to a final concentration of 100 μM. Reactions were incubated at room temperature for 30 minutes and then Mg/ATP was added to the mix. Reactions were further incubated for an additional 60 minutes and then stopped by adding SDS gel loading buffer and boiled for 5 minutes. Reactions were run on SDS-PAGE (10%) and transferred to nitrocellulose membranes and probed with HRP-Streptavidin.
Candidate compounds were tested in duplicate at both 10 and 100 μM against the E3 ligase cascades βTrCP(IκBα) and βTrCP(β-catenin). The E3 assays were carried out according to the component concentrations detailed in Table 9. In each case the E2 was HA,6His-UbcH3-(hu,FL), the E1 was 6His-UBE1-(hu,FL) and the ubiquitin (Sigma U6253) was biotinylated at a 5:1 ratio. Substrate phosphorylation was performed in the absence of compound; consequently any observed signal modulation should not reflect inhibition of the up-stream kinase reaction. All other steps (E1, E2 and substrate ubiquitination) were carried out in the presence of compound. The stopped reaction mix (10 μl) was added to an ECL plate loaded with anti c-Myc ( 1/500 Dilution, Millipore 05-724) and blocked with 5% BSA. Binding was allowed to proceed for 1 hour at RT before a wash step (3 40 μl PBST washes). Detection was achieved by binding SA-Ru TAG at 1 μg/ml (1 hour @ RT, 3 40 μl PBST washes) before reading on an MSD Sector Imager 6000.
Assays were performed as described above

Another test addresses Skp2 (Homo sapiens, UniProt Q13309). As to the kind of experiment: Selectivity assay vs other E3s: Skp2. It counts as biochemical. The settings on record: for inhibition at 100 µM: read-out: % Inhibition Skp2 @ (100 μM); for inhibition at 10 µM: read-out: % Inhibition Skp2 @ 10 μM. How it is done: as §1, §2
(§3) Candidate compounds were tested for inhibition of Fbw7 and Skp2 as described above.

In test [1] the target is βTrCP (Homo sapiens, UniProt Q9Y297). As to the kind of experiment: Fluorescence polarisation (FP) binding assay with fluorescein-tagged IκB peptide. On the technique in general: Polarisation of emitted light reports the rotation of a fluorescent probe.
Target sequence in this assay (P63208 whole entry partner, one chain of several): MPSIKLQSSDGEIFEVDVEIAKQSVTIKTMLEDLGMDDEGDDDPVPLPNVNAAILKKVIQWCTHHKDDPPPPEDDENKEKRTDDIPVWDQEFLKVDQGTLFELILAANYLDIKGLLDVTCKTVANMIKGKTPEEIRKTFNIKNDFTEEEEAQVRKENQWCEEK
The target of test [2] is T1, βTrCP (Homo sapiens, UniProt Q9Y297).
T1 sequence (Q9Y297 1-605): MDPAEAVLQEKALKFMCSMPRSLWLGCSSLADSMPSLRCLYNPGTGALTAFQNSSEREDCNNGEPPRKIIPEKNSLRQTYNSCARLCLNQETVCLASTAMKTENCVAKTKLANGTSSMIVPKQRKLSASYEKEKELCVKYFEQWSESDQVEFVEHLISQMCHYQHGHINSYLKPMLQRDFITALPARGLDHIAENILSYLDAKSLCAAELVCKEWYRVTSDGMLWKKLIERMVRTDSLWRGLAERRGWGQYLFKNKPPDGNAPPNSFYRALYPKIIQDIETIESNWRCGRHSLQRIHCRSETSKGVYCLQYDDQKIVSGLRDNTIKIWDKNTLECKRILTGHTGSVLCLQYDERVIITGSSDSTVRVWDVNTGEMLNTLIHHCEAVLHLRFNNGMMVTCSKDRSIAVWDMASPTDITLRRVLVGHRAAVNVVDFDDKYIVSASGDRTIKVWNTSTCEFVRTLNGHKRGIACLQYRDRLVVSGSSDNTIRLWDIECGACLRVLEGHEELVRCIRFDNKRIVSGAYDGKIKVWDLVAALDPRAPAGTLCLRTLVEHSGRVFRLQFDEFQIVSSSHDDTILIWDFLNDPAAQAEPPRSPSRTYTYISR
Kind of test: Biotin pull down assay with biotinylated IκB peptide. In kind it is binding. The conditions noted are these: for Biotin Pulldown Assay 10 μM: 10 μM compound; for Biotin Pulldown Assay 100 μM: 100 μM compound.

The next test has as its target FBW7/Skp1 (Homo sapiens, UniProt Q969H0). Kind of test: Selectivity assay vs other E3s: Fbw7. It counts as biochemical. The conditions noted are these: for inhibition at 100 µM: read-out: % Inhibition Fbw7 @ (100 μM); for inhibition at 10 µM: read-out: % Inhibition Fbw7 @ 10 μM. How it is done:
as §1, §2
FBW7 selectivity assays were performed in the same manner except using FBW7/Skp1 as E3 component and cyclin E as the substrate. Blots were probed using anti-cyclin E antibody.
as §3

Where [3] appears, read: Table 11, with spread, read-out: FP IC50/μM.
Where [4] appears, read: Tables 1, 3, 7, 8, 10 nM fluorescein-tagged IκB peptide, read-out: FP Assay IC50/μM.

β-TrCP1/Skp1, sequence (P63208 2-163 partner limits assumed, one chain of several): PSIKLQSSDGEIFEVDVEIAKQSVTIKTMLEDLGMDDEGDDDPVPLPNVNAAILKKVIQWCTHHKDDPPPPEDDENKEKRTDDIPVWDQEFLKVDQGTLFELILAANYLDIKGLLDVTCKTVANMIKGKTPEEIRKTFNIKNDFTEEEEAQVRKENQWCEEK
Skp2, sequence (Q13309 whole entry, species assumed): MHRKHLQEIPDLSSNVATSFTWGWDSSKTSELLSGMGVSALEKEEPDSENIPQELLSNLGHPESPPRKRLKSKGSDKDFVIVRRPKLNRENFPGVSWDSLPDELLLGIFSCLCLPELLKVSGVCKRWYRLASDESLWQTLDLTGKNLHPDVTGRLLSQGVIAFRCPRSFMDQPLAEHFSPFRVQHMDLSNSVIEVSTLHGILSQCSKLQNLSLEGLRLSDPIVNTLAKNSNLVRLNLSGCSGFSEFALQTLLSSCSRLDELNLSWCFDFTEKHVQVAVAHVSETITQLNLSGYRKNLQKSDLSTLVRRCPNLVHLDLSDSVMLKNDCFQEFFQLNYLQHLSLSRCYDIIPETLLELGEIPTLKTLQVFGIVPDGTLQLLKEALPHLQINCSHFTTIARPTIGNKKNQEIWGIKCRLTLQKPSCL
Skp2, sequence (P63208 whole entry partner, species assumed): as the sequence (P63208 whole entry partner, one chain of several) above
Skp2, sequence (Q13616 whole entry partner, species assumed): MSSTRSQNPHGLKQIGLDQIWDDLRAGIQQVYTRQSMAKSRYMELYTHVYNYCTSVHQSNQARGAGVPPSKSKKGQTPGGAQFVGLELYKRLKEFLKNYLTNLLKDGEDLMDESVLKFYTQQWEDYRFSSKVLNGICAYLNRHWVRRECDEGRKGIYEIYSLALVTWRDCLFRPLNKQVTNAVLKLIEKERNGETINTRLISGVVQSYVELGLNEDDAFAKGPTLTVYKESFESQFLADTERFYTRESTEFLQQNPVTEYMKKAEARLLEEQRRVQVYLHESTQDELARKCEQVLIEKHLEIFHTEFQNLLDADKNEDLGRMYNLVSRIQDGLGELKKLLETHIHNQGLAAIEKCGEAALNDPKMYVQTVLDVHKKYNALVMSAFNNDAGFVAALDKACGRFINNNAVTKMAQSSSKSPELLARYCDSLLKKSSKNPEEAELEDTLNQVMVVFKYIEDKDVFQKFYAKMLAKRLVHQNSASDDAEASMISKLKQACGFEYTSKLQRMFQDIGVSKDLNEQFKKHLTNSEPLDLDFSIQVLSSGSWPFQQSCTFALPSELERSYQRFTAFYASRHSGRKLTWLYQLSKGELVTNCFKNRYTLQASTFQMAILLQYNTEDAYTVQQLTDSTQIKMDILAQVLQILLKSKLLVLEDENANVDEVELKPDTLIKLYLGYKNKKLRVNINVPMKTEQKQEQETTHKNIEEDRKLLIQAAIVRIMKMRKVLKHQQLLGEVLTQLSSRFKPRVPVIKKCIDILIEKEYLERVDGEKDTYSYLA
Skp2, sequence (P62877 whole entry partner, species assumed): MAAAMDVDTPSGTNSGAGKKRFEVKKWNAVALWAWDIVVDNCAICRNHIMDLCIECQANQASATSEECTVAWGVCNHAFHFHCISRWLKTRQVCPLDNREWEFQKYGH
FBW7/Skp1, sequence (Q969H0 whole entry, species assumed): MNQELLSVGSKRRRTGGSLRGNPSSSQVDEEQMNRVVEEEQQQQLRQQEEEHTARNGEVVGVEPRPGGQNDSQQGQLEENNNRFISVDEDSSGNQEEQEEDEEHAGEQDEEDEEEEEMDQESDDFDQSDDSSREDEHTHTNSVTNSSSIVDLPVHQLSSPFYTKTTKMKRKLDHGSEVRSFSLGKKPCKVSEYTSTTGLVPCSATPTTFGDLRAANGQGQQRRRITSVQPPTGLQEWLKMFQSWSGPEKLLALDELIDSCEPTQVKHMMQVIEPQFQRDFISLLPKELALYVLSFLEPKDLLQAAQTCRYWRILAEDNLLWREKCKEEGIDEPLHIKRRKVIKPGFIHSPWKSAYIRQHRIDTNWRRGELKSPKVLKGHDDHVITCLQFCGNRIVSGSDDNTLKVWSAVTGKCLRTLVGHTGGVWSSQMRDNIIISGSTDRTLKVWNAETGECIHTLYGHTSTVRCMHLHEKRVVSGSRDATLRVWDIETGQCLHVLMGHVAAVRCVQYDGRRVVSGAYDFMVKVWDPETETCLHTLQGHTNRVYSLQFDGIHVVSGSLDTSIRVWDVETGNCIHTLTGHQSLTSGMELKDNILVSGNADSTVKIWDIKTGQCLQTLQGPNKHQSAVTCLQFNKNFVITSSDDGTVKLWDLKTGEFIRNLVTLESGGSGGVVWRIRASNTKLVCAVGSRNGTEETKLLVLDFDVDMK
FBW7/Skp1, sequence (P63208 whole entry partner, species assumed): as the sequence (P63208 whole entry partner, one chain of several) above
FBW7/Skp1, sequence (Q13616 whole entry partner, species assumed): as the sequence (Q13616 whole entry partner, species assumed) above
FBW7/Skp1, sequence (P62877 whole entry partner, species assumed): as the sequence (P62877 whole entry partner, species assumed) above

As to `CCCCOc1ccc(S(=O)(=O)N[C@H](CC(=O)O)C(=O)N[C@@H](CCC(=O)O)C(=O)NCC(=O)N[C@@H](Cc2cccc(F)c2)C(=O)N[C@@H](Cc2c[nH]c3ccccc23)C(=O)N[C@@H](CCC(=O)O)C(N)=O)cc1` [UBP030, 4-(BuO)-PhSO2-dEGF(3F)WE-NH2] (X1-[dD]EG[Phe(3-F)]WE-NH2), at β-TrCP1/Skp1, the “Ub Assay 10 μM” value is recorded as “reduces/”. Also, the “Ub Assay 100 μM” value on β-TrCP1/Skp1 is recorded as “inhibits”. Moreover, the inhibition (in general, the percentage by which the read-out fell short of the control) at 100 µM stood at 13% at Skp2 (100 μM, value in brackets) and 12% on FBW7/Skp1 (100 μM, value in brackets). For the same compound, the values for the inhibition at 10 µM on Skp2 and at FBW7/Skp1 were 0% and 7%, respectively. For the same compound, the IC50 on βTrCP [1] (setting [3]) stood at 0.056 ± 0.008 µM; on βTrCP [1] (setting [4]), 0.056 µM. On βTrCP [2], the “Biotin Pulldown Assay 10 μM” value is reported as “reduces/”. In addition, at βTrCP [2], the “Biotin Pulldown Assay 100 μM” value is recorded as “inhibits”.

Take `Cc1ccc(S(=O)(=O)N[C@H](CC(=O)O)C(=O)N[C@@H](CCC(=O)O)C(=O)NCC(=O)N[C@@H](Cc2cccc(Cl)c2)C(=O)N[C@@H](Cc2c[nH]c3ccccc23)C(=O)N(C)[C@@H](CCC(=O)O)C(N)=O)cc1` [UBP033, Ts-dEGF(3Cl)WE(Me)-NH2] (Tos-[dD]EG[Phe(3-Cl)]W[NMeE]-NH2): on β-TrCP1/Skp1, the “Ub Assay 100 μM” value is recorded as “inhibits”. For the same compound, the inhibition at 100 µM on Skp2 (100 μM, value in brackets) amounted to 10%; on FBW7/Skp1 (100 μM, value in brackets), 11%. Also, the inhibition at 10 µM was determined as 0% on Skp2 and 7% at FBW7/Skp1. Moreover, the IC50 at βTrCP [1] (setting [4]) was determined as 0.017 µM. The “Biotin Pulldown Assay 100 μM” value on βTrCP [2] is “inhibits”.

For the compound `NC(=O)[C@H](CCC(=O)O)NC(=O)[C@H](Cc1c[nH]c2ccccc12)NC(=O)[C@H](Cc1cccc(F)c1)NC(=O)CNC(=O)[C@H](CCC(=O)O)NC(=O)[C@@H](CC(=O)O)NC(=O)c1ccccc1` [UBP018, Bz-dEGF(3F)WE-NH2] (Bz-[dD]EG[Phe(3-F)]WE-NH2), at β-TrCP1/Skp1, the “Ub Assay 10 μM” value was “reduces/” and the “Ub Assay 100 μM” value is reported as “inhibits”. At Skp2, the inhibition at 10 µM amounted to 0% and the inhibition at 100 µM came out at 0%. On βTrCP [1] (FP Assay IC50/μM, Tables 1, 3, 7, 8, 10 nM fluorescein-tagged IκB peptide), this compound came in with an IC50 of 0.173 µM. Also, the IC50 on βTrCP [1] (FP IC50/μM, Table 11, with spread) was found to be 0.173 ± 0.072 µM. On βTrCP [2], the “Biotin Pulldown Assay 10 μM” value is “reduces/” and the “Biotin Pulldown Assay 100 μM” value was “inhibits”. On FBW7/Skp1, the inhibition at 10 µM was 0% and the inhibition at 100 µM turned out to be 5%.

Consider `CCC(=O)N[C@H](CC(=O)O)C(=O)N[C@@H](CCC(=O)O)C(=O)NCC(=O)N[C@@H](Cc1cccc(F)c1)C(=O)N[C@@H](Cc1c[nH]c2ccccc12)C(=O)N[C@@H](CCC(=O)O)C(N)=O` [UBP019, Et(CO)-dEGF(3F)WE-NH2] (Propionyl-[dD]EG[Phe(3-F)]WE-NH2), for which, on β-TrCP1/Skp1, the “Ub Assay 10 μM” value is given as “reduces/”. For the same compound, the “Ub Assay 100 μM” value on β-TrCP1/Skp1 is given as “inhibits”. In addition, the inhibition at 100 µM worked out at 10% at Skp2 (100 μM, value in brackets) and 10% on FBW7/Skp1 (100 μM, value in brackets). Besides, the inhibition at 10 µM at Skp2 was 1%; on FBW7/Skp1 it was 0%. For the same compound, the figures for the IC50 on βTrCP [1] (setting [3]) and at βTrCP [1] (setting [4]) were 0.145 ± 0.026 µM and 0.145 µM, respectively. For the same compound, the “Biotin Pulldown Assay 10 μM” value on βTrCP [2] is reported as “reduces/”. For the same compound, the “Biotin Pulldown Assay 100 μM” value on βTrCP [2] is “inhibits”.

On to `COc1ccc(S(=O)(=O)N[C@H](CC(=O)O)C(=O)N[C@@H](CCC(=O)O)C(=O)NCC(=O)N[C@@H](Cc2cccc(F)c2)C(=O)N[C@@H](Cc2c[nH]c3ccccc23)C(=O)N[C@@H](CCC(=O)O)C(N)=O)cc1OC` [UBP029, 3,4-(MeO)2-PhSO2-dEGF(3F)WE-NH2] (X2-[dD]EG[Phe(3-F)]WE-NH2), for which, on β-TrCP1/Skp1, the “Ub Assay 10 μM” value is “reduces/” and the “Ub Assay 100 μM” value is “inhibits”. At Skp2 (100 μM, value in brackets), the inhibition at 100 µM came to 19%. The inhibition at 10 µM on Skp2 was found to be 19%. For the same compound, the IC50 on βTrCP [1] (setting [3]) is 0.042 ± 0.001 µM. At βTrCP [2], the “Biotin Pulldown Assay 10 μM” value was “reduces/” and the “Biotin Pulldown Assay 100 μM” value is “inhibits”. For the same compound, the inhibition at 100 µM at FBW7/Skp1 (100 μM, value in brackets) was determined as 0%. Moreover, the inhibition at 10 µM on FBW7/Skp1 turned out to be 2%.

The values above are taken from patent US20190106460A1, “BINDING INHIBITORS OF THE BETA. TRANSDUCIN REPEAT-CONTAINING PROTEIN” (priority 2011, published 2019).
